Measured values taken from PubChem BioAssay AID246 (DTP/NCI, 2004).
“And” between values parts separate entries of the source, which are not always exact repeats. Identical values can stand only once. Toxic doses and inconclusive results are not listed.

System: BDF1 mice, P1081 chloroleukemia ip, survival T/C
Assay: NCI In Vivo Anticancer Drug Screen. Data for tumor model P1081 Chloroleukemia (intraperitoneal) in B6D2F1 (BDF1) mice
Details: endpoint: mean survival time, higher = longer survival
Protocol: The antitumor activity of compounds was measured in mice bearing transplantable tumors. Survival or tumor size were measured and the results are expressed as the measurement made in the treated group (T) divided by the measurement made in the vehicle treated control group (C). The tumor model used in this assay is P1081 Chloroleukemia (intraperitoneal) in B6D2F1 (BDF1) mice

[1] = dose: 62.5 micrograms/kg/injection, schedule: Q01DX010 (ip), vehicle: saline
[2] = dose: 125.0 micrograms/kg/injection, schedule: Q01DX010 (ip), vehicle: saline
[3] = dose: 250.0 micrograms/kg/injection, schedule: Q01DX010 (ip), vehicle: saline
[4] = dose: 500.0 micrograms/kg/injection, schedule: Q01DX010 (ip), vehicle: saline
[5] = dose: 12.5 mg/kg/injection, schedule: Q01DX010 (ip), vehicle: saline
[6] = dose: 25.0 mg/kg/injection, schedule: Q01DX010 (ip), vehicle: saline
[7] = dose: 50.0 mg/kg/injection, schedule: Q01DX010 (ip), vehicle: saline
[8] = dose: 1.6 mg/kg/injection, schedule: Q01DX Z (ip), vehicle: carboxymethylcellulose (CMC)
[9] = dose: 12.5 mg/kg/injection, schedule: Q01DX Z (ip), vehicle: carboxymethylcellulose (CMC)
[10] = dose: 20.0 mg/kg/injection, schedule: Q01DX010 (ip), vehicle: saline
[11] = dose: 25.0 mg/kg/injection, schedule: Q01DX Z (ip), vehicle: carboxymethylcellulose (CMC)
[12] = dose: 4.0 mg/kg/injection, schedule: Q01DX010 (ip), vehicle: saline
[13] = dose: 8.0 mg/kg/injection, schedule: Q01DX010 (ip), vehicle: saline

## S=P(N1CC1)(N1CC1)N1CC1
dose: 0.37 mg/kg/injection, schedule: Q01DX Z (ip), vehicle: saline
  T/C: 98 % of control
dose: 0.75 mg/kg/injection, schedule: Q01DX Z (ip), vehicle: saline
  T/C: 96 % of control
dose: 1.5 mg/kg/injection, schedule: Q01DX Z (ip), vehicle: saline
  T/C: 109 % of control

## O[C@H](CN1CC1)[C@@H](O)CN1CC1
dose: 0.12 mg/kg/injection, schedule: Q01DX Z (ip), vehicle: carboxymethylcellulose (CMC)
  T/C: 193 % of control
dose: 0.25 mg/kg/injection, schedule: Q01DX Z (ip), vehicle: carboxymethylcellulose (CMC)
  T/C: 204 % of control
dose: 0.5 mg/kg/injection, schedule: Q01DX Z (ip), vehicle: carboxymethylcellulose (CMC)
  T/C: 117 % of control
dose: 16.0 micrograms/kg/injection, schedule: Q01DX Z (ip), vehicle: carboxymethylcellulose (CMC)
  T/C: 100 % of control
[1]
  T/C: 316 % of control
[2]
  T/C: 210 % of control and 261 % of control
dose: 125.0 micrograms/kg/injection, schedule: Q01DX Z (ip), vehicle: carboxymethylcellulose (CMC)
  T/C: 157 % of control
[3]
  T/C: 288 % of control
[4]
  T/C: 150 % of control and 177 % of control

## CS(=O)(=O)OCCCCOS(C)(=O)=O
dose: 0.78 mg/kg/injection, schedule: Q01DX Z (ip), vehicle: methylcellulose (MC)
  T/C: 89 % of control
dose: 6.25 mg/kg/injection, schedule: Q01DX010 (ip), vehicle: saline
  T/C: 110 % of control
[5]
  T/C: 86 % of control and 100 % of control
[6]
  T/C: 86 % of control and 100 % of control
dose: 25.0 mg/kg/injection, schedule: Q01DX Z (ip), vehicle: methylcellulose (MC)
  T/C: 95 % of control
[7]
  T/C: 90 % of control and 100 % of control
dose: 50.0 mg/kg/injection, schedule: Q01DX Z (ip), vehicle: methylcellulose (MC)
  T/C: 92 % of control

## Cn1c(N)nc2nc[nH]c2c1=S
[8]
  T/C: 92 % of control
dose: 3.1 mg/kg/injection, schedule: Q01DX Z (ip), vehicle: carboxymethylcellulose (CMC)
  T/C: 95 % of control
dose: 6.25 mg/kg/injection, schedule: Q01DX Z (ip), vehicle: carboxymethylcellulose (CMC)
  T/C: 95 % of control and 98 % of control
dose: 10.0 mg/kg/injection, schedule: Q01DX010 (ip), vehicle: saline
  T/C: 120 % of control and 100 % of control
[9]
  T/C: 96 % of control and 102 % of control
[10]
  T/C: 105 % of control
[11]
  T/C: 96 % of control and 100 % of control and 105 % of control
dose: 50.0 mg/kg/injection, schedule: Q01DX Z (ip), vehicle: carboxymethylcellulose (CMC)
  T/C: 98 % of control and 104 % of control
dose: 100.0 mg/kg/injection, schedule: Q01DX Z (ip), vehicle: carboxymethylcellulose (CMC)
  T/C: 98 % of control and 102 % of control

## CC(CCC(C)OS(C)(=O)=O)OS(C)(=O)=O (stereo unspecified)
dose: 1.25 mg/kg/injection, schedule: Q01DX Z (ip), vehicle: carboxymethylcellulose (CMC)
  T/C: 95 % of control
dose: 2.5 mg/kg/injection, schedule: Q01DX Z (ip), vehicle: carboxymethylcellulose (CMC)
  T/C: 111 % of control
[12]
  T/C: 100 % of control
[13]
  T/C: 105 % of control
dose: 16.0 mg/kg/injection, schedule: Q01DX010 (ip), vehicle: saline
  T/C: 115 % of control and 105 % of control
dose: 32.0 mg/kg/injection, schedule: Q01DX010 (ip), vehicle: saline
  T/C: 116 % of control
dose: 64.0 mg/kg/injection, schedule: Q01DX010 (ip), vehicle: saline
  T/C: 88 % of control

## CC[C@@H](c1ccc(O)cc1)[C@@H](CC)c1ccc(O)cc1
dose: 62.5 mg/kg/injection, schedule: Q01DX Z (sc), vehicle: steriod suspending solution
  T/C: 101 % of control
dose: 125.0 mg/kg/injection, schedule: Q01DX Z (sc), vehicle: steriod suspending solution
  T/C: 104 % of control
dose: 250.0 mg/kg/injection, schedule: Q01DX Z (sc), vehicle: steriod suspending solution
  T/C: 108 % of control and 118 % of control and 105 % of control
dose: 500.0 mg/kg/injection, schedule: Q01DX Z (sc), vehicle: steriod suspending solution
  T/C: 108 % of control and 112 % of control and 103 % of control
dose: 1000.0 mg/kg/injection, schedule: Q01DX Z (sc), vehicle: steriod suspending solution
  T/C: 102 % of control
dose: 2000.0 mg/kg/injection, schedule: Q01DX Z (sc), vehicle: steriod suspending solution
  T/C: 100 % of control

## NC(=O)N(CCCl)N=O
dose: 1.0 mg/kg/injection, schedule: Q01DX Z (ip), vehicle: carboxymethylcellulose (CMC)
  T/C: 97 % of control
dose: 4.0 mg/kg/injection, schedule: Q01DX Z (ip), vehicle: carboxymethylcellulose (CMC)
  T/C: 95 % of control
dose: 8.0 mg/kg/injection, schedule: Q01DX Z (ip), vehicle: carboxymethylcellulose (CMC)
  T/C: 106 % of control
dose: 16.0 mg/kg/injection, schedule: Q01DX Z (ip), vehicle: carboxymethylcellulose (CMC)
  T/C: 108 % of control

## CS(=O)(=O)OCCN(CCOS(C)(=O)=O)c1ccc(N=O)cc1
dose: 0.5 mg/kg/injection, schedule: Q01DX010 (ip), vehicle: saline
  T/C: 122 % of control
dose: 1.0 mg/kg/injection, schedule: Q01DX010 (ip), vehicle: saline
  T/C: 104 % of control
[1]
  T/C: 155 % of control
[2]
  T/C: 194 % of control
[3]
  T/C: 277 % of control
[4]
  T/C: 238 % of control

## OCC1OC(n2cnc3c(=S)nc[nH]c32)C(O)C1O (stereo unspecified)
[10]
  T/C: 110 % of control and 105 % of control
dose: 40.0 mg/kg/injection, schedule: Q01DX010 (ip), vehicle: saline
  T/C: 110 % of control and 100 % of control
dose: 62.5 mg/kg/injection, schedule: Q01DX Z (ip), vehicle: carboxymethylcellulose (CMC)
  T/C: 160 % of control
dose: 80.0 mg/kg/injection, schedule: Q01DX010 (ip), vehicle: saline
  T/C: 115 % of control and 120 % of control
dose: 125.0 mg/kg/injection, schedule: Q01DX Z (ip), vehicle: carboxymethylcellulose (CMC)
  T/C: 158 % of control
dose: 160.0 mg/kg/injection, schedule: Q01DX010 (ip), vehicle: saline
  T/C: 120 % of control
dose: 250.0 mg/kg/injection, schedule: Q01DX Z (ip), vehicle: carboxymethylcellulose (CMC)
  T/C: 104 % of control
dose: 500.0 mg/kg/injection, schedule: Q01DX Z (ip), vehicle: carboxymethylcellulose (CMC)
  T/C: 94 % of control

## C[n+]1c2ccccc2nc2c(N)cc(N)cc21
[8]
  T/C: 100 % of control
[9]
  T/C: 110 % of control
[11]
  T/C: 101 % of control

## N=[N+]=CC(=O)OCC(N)C(=O)O (stereo unspecified)
dose: 0.94 mg/kg/injection, schedule: Q01DX Z (ip), vehicle: saline
  T/C: 113 % of control
dose: 1.25 mg/kg/injection, schedule: Q01DX Z (ip), vehicle: saline
  T/C: 118 % of control and 122 % of control
dose: 2.5 mg/kg/injection, schedule: Q01DX Z (ip), vehicle: saline
  T/C: 107 % of control and 117 % of control
dose: 3.75 mg/kg/injection, schedule: Q01DX Z (ip), vehicle: saline
  T/C: 160 % of control
[5]
  T/C: 175 % of control
[6]
  T/C: 90 % of control and 95 % of control

## O=C(Nc1ccc(NC2=NCCN2)cc1)c1ccc(C(=O)Nc2ccc(NC3=NCCN3)cc2)cc1
dose: 2.0 mg/kg/injection, schedule: Q01DX010 (ip), vehicle: saline
  T/C: 161 % of control
dose: 2.0 mg/kg/injection, schedule: Q01DX Z (ip), vehicle: saline
  T/C: 96 % of control
[12]
  T/C: 300 % of control and 333 % of control
[13]
  T/C: 300 % of control and 333 % of control
dose: 8.0 mg/kg/injection, schedule: Q01DX Z (ip), vehicle: saline
  T/C: 153 % of control and 171 % of control
dose: 16.0 mg/kg/injection, schedule: Q01DX Z (ip), vehicle: saline
  T/C: 190 % of control
dose: 32.0 mg/kg/injection, schedule: Q01DX Z (ip), vehicle: saline
  T/C: 96 % of control

## O=C1C(NC(=O)C2CCCCC2)=C(N2CC2)C(=O)C(NC(=O)C2CCCCC2)=C1N1CC1
dose: 4.7 mg/kg/injection, schedule: Q01DX Z (ip), vehicle: carboxymethylcellulose (CMC)
  T/C: 118 % of control
dose: 9.4 mg/kg/injection, schedule: Q01DX Z (ip), vehicle: carboxymethylcellulose (CMC)
  T/C: 109 % of control and 103 % of control
dose: 18.8 mg/kg/injection, schedule: Q01DX Z (ip), vehicle: carboxymethylcellulose (CMC)
  T/C: 117 % of control
[6]
  T/C: 90 % of control
dose: 37.5 mg/kg/injection, schedule: Q01DX Z (ip), vehicle: carboxymethylcellulose (CMC)
  T/C: 112 % of control and 117 % of control
[7]
  T/C: 90 % of control
dose: 75.0 mg/kg/injection, schedule: Q01DX Z (ip), vehicle: carboxymethylcellulose (CMC)
  T/C: 109 % of control
dose: 100.0 mg/kg/injection, schedule: Q01DX010 (ip), vehicle: saline
  T/C: 90 % of control
dose: 150.0 mg/kg/injection, schedule: Q01DX Z (ip), vehicle: carboxymethylcellulose (CMC)
  T/C: 116 % of control
dose: 300.0 mg/kg/injection, schedule: Q01DX Z (ip), vehicle: carboxymethylcellulose (CMC)
  T/C: 109 % of control
dose: 600.0 mg/kg/injection, schedule: Q01DX Z (ip), vehicle: carboxymethylcellulose (CMC)
  T/C: 88 % of control
